Experimental data published in ChEMBL document CHEMBL2021885, “Triphenylbutanamines: kinesin spindle protein inhibitors with in vivo antitumor activity” (J Med Chem, 2012).
Activity calls are given as the source filed them. The rule behind the calls is not given here.

Assays:
[1] = molecular target: T1, Kinesin-like protein KIF20A (Homo sapiens) (UniProt O95235); assay: Inhibition of MKLP2 ATPase activity
T1 sequence (whole entry): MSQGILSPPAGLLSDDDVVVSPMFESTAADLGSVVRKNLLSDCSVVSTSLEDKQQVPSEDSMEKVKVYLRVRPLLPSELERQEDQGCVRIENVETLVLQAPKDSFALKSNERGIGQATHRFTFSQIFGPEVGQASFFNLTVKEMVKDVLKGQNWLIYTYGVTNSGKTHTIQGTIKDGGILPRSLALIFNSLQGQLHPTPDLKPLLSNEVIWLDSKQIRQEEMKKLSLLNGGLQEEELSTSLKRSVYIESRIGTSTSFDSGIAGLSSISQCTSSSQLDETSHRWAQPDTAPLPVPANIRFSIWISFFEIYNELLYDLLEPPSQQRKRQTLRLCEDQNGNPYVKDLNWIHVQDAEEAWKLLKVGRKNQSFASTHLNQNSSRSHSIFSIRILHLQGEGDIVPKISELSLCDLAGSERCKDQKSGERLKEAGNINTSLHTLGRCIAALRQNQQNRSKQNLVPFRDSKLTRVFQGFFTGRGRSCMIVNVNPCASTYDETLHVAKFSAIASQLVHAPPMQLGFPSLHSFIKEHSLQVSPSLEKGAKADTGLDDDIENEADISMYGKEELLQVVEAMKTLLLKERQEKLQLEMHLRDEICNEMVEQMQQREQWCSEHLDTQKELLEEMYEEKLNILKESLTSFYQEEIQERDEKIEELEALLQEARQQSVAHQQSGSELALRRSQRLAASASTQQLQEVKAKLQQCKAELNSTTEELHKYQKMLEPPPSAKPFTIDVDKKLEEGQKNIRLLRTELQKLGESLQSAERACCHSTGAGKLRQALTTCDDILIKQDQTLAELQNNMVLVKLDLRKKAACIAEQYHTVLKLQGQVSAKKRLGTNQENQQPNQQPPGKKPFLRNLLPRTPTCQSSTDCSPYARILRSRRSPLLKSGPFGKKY

[2] = test system: HCT-116; assay: Antiproliferative activity against human HCT116 cells after 72 hrs by Alamar blue assay; format: functional; conditions: HCT-116, 72 h
[3] = test system: BXPC-3; assay: Antiproliferative activity against human BxPC3 cells after 72 hrs by Alamar blue assay; format: functional; conditions: BXPC-3, 72 h
[4] = Turbidimetric solubility of the compound at pH 2; format: physicochemical; conditions: buffer
[5] = Turbidimetric solubility of the compound at pH 6; format: physicochemical; conditions: buffer
[6] = Lipophilicity, Log P of the compound; format: physicochemical; conditions: octanol/water; read-out: logP

Cc1cccc(C(CCC(N)C(=O)O)(c2ccccc2)c2ccccc2)c1 (racemic)
inhibition [1]: inactive
GI50 [2]: 99 nM
GI50 [3]: 144 nM
solubility kinetic [4]: > 100 µM
solubility kinetic [5]: > 100 µM
logP [6]: 2.45
